Four compounds from patent US10874745B2, “Antimicrobial peptides and methods of treating gram-negative pathogens: polar and non-polar face analogs” (priority 2017, dated 2020) can be followed below.

As usually defined, the HC50 is the concentration giving 50% haemolysis.

Where “and” joins values, the source holds several entries; their conditions need not be identical. Equal entries are not always repeated. Where two headings read alike, the source gives them in different places. Non-standard residues stand in square brackets, D forms with d. Residues, ends and D or L forms follow the SMILES beside them. dDab = NCC[C@@H](N)C(=O)O

One series deals with human red blood cells. In words: Hemolytic activity. Format: cell-based. The note with it: for HC50: 50% hemolysis of human red blood cells after 18 hours at 37° C. Here is the method:
(§1) Hemoglobin release was determined spectrophotometrically at 570 nm. […] […] […] With the peptides used in this study the inventors used the HC30/MIC ratio value to calculate the therapeutic index.

A short description of another series: Hemolytic activity. The format is cell-based, human. The note with it: 1% human erythrocytes (red blood cells), pH 7.4. Here is the method:
as §1

For series [1], the system named is A. baumannii clinical isolates. The series is described as follows: MIC, microtiter dilution in Mueller Hinton medium. The format is cell-based. As to conditions: geometric mean, 7 clinical isolates of A. baumannii.
Excerpt: (§2) Gram-Negative Bacterial Strains used in this Study: All the A. baumannii strains used in this study were 1) obtained from the collection of Dr. Anthony A. Campagnari at the University of Buffalo and originally isolated from different patients and organs/tissues (strain 649, blood; strain 689, groin; strain 759, gluteus; strain 884, axilla; strain 985, pleural fluid); 2) were purchased from the American Type Culture Collection (ATCC, Manassas, Va., USA) (strain ATCC 17978, fatal meningitis; and strain ATCC 19606, urine); 3) obtained from MERCK (M89941, M89949, M89951, M89952, M89953, M89955 and M89963). These seven A. baumannii strains were resistant to polymyxin B and polymyxin E (Colistin).
(§3) Measurement of Antimicrobial Activity (MIC): The minimal inhibitory concentration (MIC) is defined as the lowest peptide concentration that inhibited bacterial growth. MICs were measured by a standard microtiter dilution method in Mueller Hinton (MH) medium. Briefly, cells were grown overnight at 37° C. in MH broth and were diluted in the same medium. […] The plates were incubated at 37° C. for 24 h, and the MICs were determined.
The subject of series [2] is clinical isolates of Pseudomonas aeruginosa. The format is cell-based. As to conditions: geometric mean, 6 clinical isolates of P. aeruginosa.
Description: as §3
Series [3] has as its system A. baumannii strains resistant to Polymyxin B and Colistin. The format is cell-based. The note with it: geometric mean, 7 A. baumannii strains resistant to polymyxin B and colistin.
Excerpt: as §2, §3
Series [4] is described as follows: RP-HPLC retention time as measure of overall peptide hydrophobicity. Format: physicochemical. The note with it: Zorbax SB-C8, 0.5% B/min from 2% B, 30° C. (Table 3). The text has this: Retention behavior in RP-HPLC is an excellent method to represent overall peptide hydrophobicity. Retention times of peptides are highly sensitive to the conformational status of the peptides upon interaction with the hydrophobic environment of the column matrix (Jiang, Z., et al., Chem. Biol. Drug Des. 2011; Chen, Y., et al., J. Peptide Research 2002, supra). The non-polar faces of amphipathic alpha-helical and amphipathic cyclic beta-sheet peptides represent a preferred binding domain for interaction with the hydrophobic matrix of the reversed-phase column (Zhou, N. E., et al., Peptide Research 1990, 3:8-20). In this study, the observed peptide hydrophobicity was determined by RP-HPLC retention time as described in the methods section and are relative hydrophobicities because they are dependent on the TFA concentration and organic solvent in the mobile phase, gradient rate, temperature, flow rate and the column used. […]

The mark [5] stands for this setting: 50% hemolysis of human red blood cells after 18 hours at 37° C., read-out: HC50.

Compound `CC(=O)N[C@H](C)C(=O)N[C@H](CC(C)C)C(=O)N[C@H](CCCCN)C(=O)N[C@H](CCCCN)C(=O)N[C@H](CC(C)C)C(=O)N[C@H](CC(C)C)C(=O)N[C@H](CCCCN)C(=O)N[C@@H](C(=O)N[C@H](CC(C)C)C(=O)N[C@H](CO)C(=O)N[C@H](CCCCN)C(=O)N[C@H](C)C(=O)N[C@H](CCCNC(=N)N)C(=O)N[C@H](C)C(=O)N[C@H](C)C(=O)N[C@H](CCCNC(=N)N)C(=O)N[C@H](CC(C)C)C(=O)N[C@H](CCCCN)C(=O)N[C@@H](C(=O)N[C@H](CC(C)C)C(=O)N[C@H](CC(C)C)C(=O)N[C@H](CCCCN)C(=O)N[C@H](C)C(=O)N[C@H](CC(C)C)C(=O)N[C@H](CO)C(=O)N[C@H](CCCCN)C(N)=O)[C@H](C)O)[C@H](C)O` [D41(Arg13/Arg16)] showed an HC50 with human red blood cells of 7.2 µM. The 50% haemolytic concentration (HC50) at 18 h in “Hemolytic activity” (setting [5]) is 7.2 µM and 21 µg/mL. The MICGM was found to be 0.6 µM in series [1], 1.1 µM in series [2] and 0.8 µM in series [3].
In turn, `CC(=O)N[C@H](C)C(=O)N[C@H](CC(C)C)C(=O)N[C@H](CCCCN)C(=O)N[C@H](CCCCN)C(=O)N[C@H](CC(C)C)C(=O)N[C@H](CC(C)C)C(=O)N[C@H](CCCCN)C(=O)N[C@@H](C(=O)N[C@H](CC(C)C)C(=O)N[C@H](CO)C(=O)N[C@H](CCCCN)C(=O)N[C@H](C)C(=O)N[C@H](CCCN)C(=O)N[C@H](C)C(=O)N[C@H](C)C(=O)N[C@H](CCCN)C(=O)N[C@H](CC(C)C)C(=O)N[C@H](CCCCN)C(=O)N[C@@H](C(=O)N[C@H](CC(C)C)C(=O)N[C@H](CC(C)C)C(=O)N[C@H](CCCCN)C(=O)N[C@H](C)C(=O)N[C@H](CC(C)C)C(=O)N[C@H](CO)C(=O)N[C@H](CCCCN)C(N)=O)[C@H](C)O)[C@H](C)O` [D41(Orn13/Orn16)] displayed an HC50 in the series with human red blood cells of 34.0 µM. Also, the HC50 at 18 h in “Hemolytic activity” (setting [5]) is 34 µM and 96 µg/mL. For the same compound, the MICGM in series [1] came to 0.8 µM; in series [2] it was 1.0 µM; in series [3], 0.6 µM.
Regarding `CC(=O)N[C@H](C)C(=O)N[C@H](CC(C)C)C(=O)N[C@H](CCCCN)C(=O)N[C@H](CCCCN)C(=O)N[C@H](CC(C)C)C(=O)N[C@H](CC(C)C)C(=O)N[C@H](CCCCN)C(=O)N[C@@H](C(=O)N[C@H](CC(C)C)C(=O)N[C@H](CO)C(=O)N[C@H](CCCCN)C(=O)N[C@H](C)C(=O)N[C@H](CCN)C(=O)N[C@H](C)C(=O)N[C@H](C)C(=O)N[C@H](CCN)C(=O)N[C@H](CC(C)C)C(=O)N[C@H](CCCCN)C(=O)N[C@@H](C(=O)N[C@H](CC(C)C)C(=O)N[C@H](CC(C)C)C(=O)N[C@H](CCCCN)C(=O)N[C@H](C)C(=O)N[C@H](CC(C)C)C(=O)N[C@H](CO)C(=O)N[C@H](CCCCN)C(N)=O)[C@H](C)O)[C@H](C)O` [D41(Dbu13/Dbu16)] (Ac-[dA][dL][dK][dK][dL][dL][dK][dT][dL][dS][dK][dA][dDab][dA][dA][dDab][dL][dK][dT][dL][dL][dK][dA][dL][dS][dK]-NH2; N-terminus and C-terminus assumed), in the series on human red blood cells, the HC50 was determined as 24.3 µM. The HC50 at 18 h in “Hemolytic activity” (setting [5]) is 24.3 µM and 68 µg/mL. Moreover, the MICGM in series [1] stood at 0.6 µM; in series [2] it was 0.8 µM; in series [3] it was 0.5 µM.
With `CC(=O)N[C@H](CCCCN)C(=O)N[C@H](CC(C)C)C(=O)N[C@H](CCN)C(=O)N[C@H](CO)C(=O)N[C@H](CC(C)C)C(=O)N[C@H](CC(C)C)C(=O)N[C@H](CCN)C(=O)N[C@@H](C(=O)N[C@H](CC(C)C)C(=O)N[C@H](CO)C(=O)N[C@H](C)C(=O)N[C@H](C)C(=O)N[C@H](CCCCN)C(=O)N[C@H](CCN)C(=O)N[C@H](CCN)C(=O)N[C@H](CCCCN)C(=O)N[C@H](CC(C)C)C(=O)N[C@H](C)C(=O)N[C@@H](C(=O)N[C@H](CC(C)C)C(=O)N[C@H](CC(C)C)C(=O)N[C@H](CCN)C(=O)N[C@H](C)C(=O)N[C@H](CC(C)C)C(=O)N[C@H](CO)C(=O)N[C@H](CO)C(N)=O)[C@H](C)O)[C@H](C)O` [Peptide D104, Ac-KL(Dbu)SLL(Dbu)TLSAAK(Dbu)(Dbu)KLATLL(Dbu)ALSS-amide] (Ac-[dK][dL][dDab][dS][dL][dL][dDab][dT][dL][dS][dA][dA][dK][dDab][dDab][dK][dL][dA][dT][dL][dL][dDab][dA][dL][dS][dS]-NH2), the “tR, relative hydrophilicity/hydrophobicity” value in series [4] was 59.2 min. Further, the “Hemolysis of human red blood cells, in words” value with human red blood cells was “basically no hemolysis”. Moreover, the HC50 at 18 h in the series “Hemolytic activity” (human) is > 4000 µg/mL and > 1.49 mM.
